In the supplement of paper PMC10307832:

What was measured:
Assay in all cases: relative viability (nuclei count vs DMSO), 5 days (fraction); higher = more cells survive
Sunitinib + Luminespib = compound: CCN(CC)CCNC(=O)c1c(C)[nH]c(/C=C2\C(=O)Nc3ccc(F)cc32)c1C [Sunitinib] + CCNC(=O)c1noc(-c2cc(C(C)C)c(O)cc2O)c1-c1ccc(CN2CCOCC2)cc1 [Luminespib] (partner 0.01 µM)
How it was run: (§1)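 Lung cancer cell lines were seeded in 1536-well plates and dosed by pin tool the next day, with either a single drug or a fixed anchor-drug dose combined with five library-drug doses (not always all listed) spaced in √10 steps. Five days later, one step fixed the cells and stained their nuclei (final 0.05% Triton X-100, 1% formaldehyde, 1 ug/ml Hoechst), and nuclei were counted on 4× images. Relative viability is the nuclei count in treated wells divided by the count in vehicle wells, and each value is the median of duplicate plates.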

Sunitinib + Tozasertib = compound: CCN(CC)CCNC(=O)c1c(C)[nH]c(/C=C2\C(=O)Nc3ccc(F)cc32)c1C [Sunitinib] + Cc1cc(Nc2cc(N3CCN(C)CC3)nc(Sc3ccc(NC(=O)C4CC4)cc3)n2)n[nH]1 [Tozasertib] (partner 0.1 µM)
How it was run: as §1

Sunitinib + Alpelisib = compound: CCN(CC)CCNC(=O)c1c(C)[nH]c(/C=C2\C(=O)Nc3ccc(F)cc32)c1C [Sunitinib] + Cc1nc(NC(=O)N2CCC[C@H]2C(N)=O)sc1-c1ccnc(C(C)(C)C(F)(F)F)c1 [Alpelisib] (partner 2 µM)
How it was run: as §1

Sunitinib + Dasatinib = compound: CCN(CC)CCNC(=O)c1c(C)[nH]c(/C=C2\C(=O)Nc3ccc(F)cc32)c1C [Sunitinib] + Cc1nc(Nc2ncc(C(=O)Nc3c(C)cccc3Cl)s2)cc(N2CCN(CCO)CC2)n1 [Dasatinib] (partner 0.075 µM)
How it was run: as §1

Cell Line | relative viability (Sunitinib + Luminespib; first compound 0.02 µM) | relative viability (Sunitinib + Luminespib; first compound 0.06325 µM) | relative viability (Sunitinib + Luminespib; first compound 0.2 µM) | relative viability (Sunitinib + Luminespib; first compound 0.6325 µM) | relative viability (Sunitinib + Luminespib; first compound 2 µM) | relative viability (Sunitinib + Tozasertib; first compound 0.02 µM) | relative viability (Sunitinib + Tozasertib; first compound 0.06325 µM) | relative viability (Sunitinib + Tozasertib; first compound 0.2 µM) | relative viability (Sunitinib + Tozasertib; first compound 0.6325 µM) | relative viability (Sunitinib + Tozasertib; first compound 2 µM) | relative viability (Sunitinib + Alpelisib; first compound 0.02 µM) | relative viability (Sunitinib + Alpelisib; first compound 0.06325 µM) | relative viability (Sunitinib + Alpelisib; first compound 0.2 µM) | relative viability (Sunitinib + Alpelisib; first compound 0.6325 µM) | relative viability (Sunitinib + Dasatinib; first compound 0.02 µM) | relative viability (Sunitinib + Dasatinib; first compound 0.06325 µM) | relative viability (Sunitinib + Dasatinib; first compound 0.2 µM) | relative viability (Sunitinib + Dasatinib; first compound 0.6325 µM) | relative viability (Sunitinib + Dasatinib; first compound 2 µM) | relative viability (Sunitinib + Alpelisib; first compound 2 µM)
NCI-H1755 | 0.435 | 0.497 | 0.499 | 0.441 | 0.334 | 0.561 | 0.529 | 0.752 | 0.593 | 0.569 | 0.938 | 0.915 | 1.01 | 0.94 | 0.41 | 0.46 | 0.441 | 0.424 | 0.448 | –
NCI-H1793 | 0.19 | 0.166 | 0.165 | 0.191 | 0.166 | 0.413 | 0.34 | 0.351 | 0.281 | 0.214 | – | 0.727 | 0.823 | 0.696 | 0.397 | 0.366 | 0.429 | 0.444 | 0.346 | 0.787
NCI-H1915 | 0.5 | 0.846 | 0.822 | 0.869 | 0.83 | 0.415 | 0.418 | 0.46 | 0.453 | 0.465 | – | 1.09 | 1.13 | 1.06 | 0.302 | 0.346 | 0.322 | 0.34 | 0.296 | 1.11
NCI-H1944 | 0.738 | 0.722 | 0.752 | 0.769 | 0.638 | 0.229 | 0.283 | 0.283 | 0.255 | 0.258 | 0.798 | 0.883 | 1.02 | 0.964 | 0.205 | 0.246 | 0.211 | 0.239 | 0.211 | –
NCI-H1975 | 0.278 | 0.185 | 0.185 | 0.173 | 0.172 | 0.705 | 0.67 | 0.717 | 0.318 | 0.186 | 0.597 | 0.686 | 0.669 | 0.677 | 0.36 | 0.403 | 0.399 | 0.423 | 0.344 | 0.381
NCI-H1993 | 0.741 | 0.941 | 0.866 | 0.654 | 0.79 | 0.527 | 0.581 | 0.678 | 0.605 | 0.586 | 0.674 | 0.697 | 0.716 | 0.689 | 0.735 | 0.545 | 0.779 | 0.654 | 0.645 | 0.68
NCI-H2009 | 1.02 | 1.05 | 1.18 | 1.04 | 1.04 | 0.695 | 0.747 | 0.858 | 0.78 | 0.716 | 1.18 | 1.2 | 1.27 | 1.19 | 0.291 | 0.379 | 0.288 | 0.393 | 0.309 | 1.12
NCI-H2023 | 0.602 | 0.671 | 1.08 | 0.765 | 0.611 | 0.304 | 0.301 | 0.382 | 0.239 | 0.181 | 0.638 | 0.584 | 0.697 | 0.64 | 0.459 | 0.582 | 0.628 | 0.707 | 0.642 | 0.516
